Measured values taken from the supplement of paper PMC10307832.

The cell lines below were run with CC1(COc2ccc3c(c2)ncn3-c2ccc3cccc(N4CCC(N)CC4)c3n2)COC1 [Crenolanib] + N=C(N)NC(=N)NCCc1ccccc1 [Phenformin] (partner 250 µM) (assay: relative viability (nuclei count vs DMSO), 5 days (fraction); higher = more cells survive). Settings: first compound 0.01 µM.
Method in brief: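 Lung cancer cell lines were pin-tool dosed in 1536-well plates on the day after seeding, with either a lone drug or a fixed anchor-drug dose plus five library-drug doses (not always all listed) in √10 steps. Nuclei were counted on 4× images after 5 days. Relative viability is the ratio of treated-well to vehicle-well nuclei counts, with each value a median of duplicate plates.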

Cell Line | relative viability
LC-2-ad | 0.648
LU99A | 0.95
ChaGo-K-1 | 0.533
NCI-H2170 | 0.467
NCI-H3122 | 0.383
HCC-78 | 0.783
SW 900 | 0.81
LXF-289 | 0.514
BEN | 0.259
HCC-15 | 0.51
HCC-827 | 0.446
NCI-H441 | 0.771
LOU-NH91 | 0.862
NCI-H2023 | 0.407
A-427 | 0.366
NCI-H460 | 0.549
NCI-H727 | 0.636
NCI-H1755 | 0.666
NCI-H520 | 0.605
NCI-H2405 | 0.359
SW 1573 | 0.426
NCI-H1395 | 0.448
201T | 0.438
NCI-H1975 | 0.419
HOP-62 | 0.616
NCI-H2347 | 0.381
NCI-H1355 | 0.506

Same assay, conditions: first compound 0.03162 µM

Cell Line | relative viability
NCI-H647 | 0.612
LK-2 | 0.446
NCI-H2126 | 0.536
NCI-H2342 | 0.525
SK-MES-1 | 0.635
HARA | 0.464
COR-L23 | 0.417
COR-L 105 | 0.474
LC-2-ad | 0.562
LU99A | 0.748
ChaGo-K-1 | 0.495
NCI-H2170 | 0.41
NCI-H3122 | 0.344
HCC-78 | 0.604
SW 900 | 0.697
LXF-289 | 0.538
BEN | 0.235

Cell Line | relative viability
HCC-15 | 0.506
HCC-827 | 0.401
NCI-H441 | 0.881
LOU-NH91 | 0.657
NCI-H2023 | 0.415
A-427 | 0.372
NCI-H460 | 0.514
NCI-H727 | 0.544
NCI-H1755 | 0.642
NCI-H520 | 0.574
NCI-H2405 | 0.394
SW 1573 | 0.44
NCI-H1395 | 0.455
201T | 0.446
NCI-H1975 | 0.402
HOP-62 | 0.711
NCI-H1355 | 0.463

Same assay, conditions: first compound 0.1 µM

Cell Line | relative viability
NCI-H647 | 0.551
LK-2 | 0.411
NCI-H2126 | 0.51
NCI-H2342 | 0.556
SK-MES-1 | 0.687
HARA | 0.398
COR-L23 | 0.47
COR-L 105 | 0.497
LC-2-ad | 0.573
LU99A | 0.818
ChaGo-K-1 | 0.536
NCI-H2170 | 0.387
NCI-H3122 | 0.368
SW 900 | 0.55
LXF-289 | 0.523
BEN | 0.267

Cell Line | relative viability
HCC-15 | 0.447
HCC-827 | 0.427
NCI-H441 | 0.955
LOU-NH91 | 0.711
NCI-H2023 | 0.409
A-427 | 0.311
NCI-H460 | 0.518
NCI-H727 | 0.497
NCI-H1755 | 0.61
NCI-H520 | 0.75
SW 1573 | 0.331
NCI-H1395 | 0.497
201T | 0.438
NCI-H1975 | 0.389
HOP-62 | 0.722
NCI-H1355 | 0.445

Same assay, conditions: first compound 0.3162 µM

Cell Line | relative viability
NCI-H647 | 0.463
LK-2 | 0.314
NCI-H2126 | 0.51
NCI-H2342 | 0.652
SK-MES-1 | 0.636
HARA | 0.391
COR-L23 | 0.427
COR-L 105 | 0.5
LC-2-ad | 0.536
LU99A | 0.902
ChaGo-K-1 | 0.42
NCI-H2170 | 0.326
NCI-H3122 | 0.313
HCC-78 | 0.791
SW 900 | 0.416
LXF-289 | 0.524
BEN | 0.255
HCC-15 | 0.469

Cell Line | relative viability
HCC-827 | 0.445
NCI-H441 | 0.936
LOU-NH91 | 0.667
NCI-H2023 | 0.441
A-427 | 0.255
NCI-H460 | 0.506
NCI-H727 | 0.565
NCI-H1755 | 0.613
NCI-H520 | 0.584
NCI-H2405 | 0.284
SW 1573 | 0.446
NCI-H1395 | 0.469
201T | 0.446
NCI-H1975 | 0.429
HOP-62 | 0.815
NCI-H2347 | 0.546
NCI-H1355 | 0.406

Same assay, conditions: first compound 1 µM

Cell Line | relative viability
NCI-H647 | 0.481
LK-2 | 0.317
NCI-H2126 | 0.455
NCI-H2342 | 0.64
SK-MES-1 | 0.583
HARA | 0.488
COR-L23 | 0.397
COR-L 105 | 0.547
LC-2-ad | 0.446
LU99A | 0.822
ChaGo-K-1 | 0.497
NCI-H2170 | 0.387
NCI-H3122 | 0.318
HCC-78 | 0.555
SW 900 | 0.585
LXF-289 | 0.483
BEN | 0.271
HCC-15 | 0.327

Cell Line | relative viability
HCC-827 | 0.403
NCI-H441 | 0.633
LOU-NH91 | 0.692
NCI-H2023 | 0.376
A-427 | 0.244
NCI-H460 | 0.473
NCI-H727 | 0.599
NCI-H1755 | 0.574
NCI-H520 | 0.616
NCI-H2405 | 0.362
SW 1573 | 0.348
NCI-H1395 | 0.436
201T | 0.435
NCI-H1975 | 0.409
HOP-62 | 0.7
NCI-H2347 | 0.469
NCI-H1355 | 0.381
